Source: US20160311795A1, “PYRIMIDINE DIAMINE DERIVATIVES AS INHIBITORS OF CYTOSOLIC HSP90” (CALASIA PHARMACEUTICALS, INC., priority 2012, published 2016)

Assays:
Akt1 in LnCaP cells = assay: Akt1 degradation in cell lysates, ELISA; assay type: cell-based; conditions: Homo sapiens, 48 h
Procedure: Tumor cell lines (LnCaP) were obtained from the Sanford Burnham Medical Research Institute (La Jolla, Calif.), LnCaP cells were cultured in culture medium (RPMI-glutamax, 10% FCS, 100 units/ml penicillin, and 100 μg/ml streptomycin). Cells were passaged after lifting using 0.25% trypsin/EDTA, and 3×10^5 cells were seeded in each well of six well plates (total volume 2.5 mL/well). After the cells were cultured for 24 h, increasing concentrations of Hsp90 inhibitor were added to wells in triplicate from DMSO-containing stock solutions and mixed by gently by stirring. Final DMSO concentration in all wells was 0.25%. The treated cells were then cultured for 48 h prior to lysate preparation. […] The protein concentration in the cell lysates was determined using the BCA protein assay kit used according to the manufacturer's recommendations. […] Two hundred μL of BCA Protein Assay Kit reagent was added and the mixtures were incubated at 37° C. for 30 min Protein concentrations were determined using a micro-titer plate reader (Model #Synergy HT; BioTek Inc., Winooski, Vt.).
Akt1 levels in the cell lysates were measured using kits from R&D Systems used according to the manufacturer's recommendations. […] Akt1 levels were determined using a micro-titer plate reader (Model #Synergy HT; BioTek Inc., Winooski, Vt.). […] Fluorescence intensities of the dilutions were measured to obtain a standard curve. […]

U251MG = assay: Cell viability / efficacy in GBM cells; assay type: cell-based, human
Procedure: (§1) The effect of SBI-0640725 on cell viability was determined by measuring cellular dehydrogenase activity (U251MG and MBA-MD-231 cells) or by measuring ADP levels (HepG2) after treating cells for 72 hours with increasing concentrations of SBI-0640725. To measure dehydrogenase activity, CCK-8 kit reagent (Dojindo) was added to the wells and incubated for 2 hours, after which absorbance was measured at 450 nm using a Synergy HT micro-titer plate reader (Biotek). To measure ADP levels, ADP-GLO reagent (Life Technologies) was added to the wells, and luminescence was measured after a 30 minute incubation using a POLARstar Omega micro-titer plate reader (BMG).
(§2) The table below summarizes efficacy of SBI-0640725 in various cancer cell lines, including U251MG, MDA-MB-231, and HepG2, using ADP-GLO assay described above. As used herein “efficacy” (EC50) is the concentration of a compound that produces half-maximal response in a cellular assay.

Akt1 in U251MG cells = assay: Hsp90 client protein stability, Akt1 ELISA; assay type: cell-based, human; conditions: 48 hours, increasing concentrations
Procedure: In further experiments, the effect of SBI-0640725 on the stability of Hsp90 client proteins was analyzed. […] Akt1 protein levels were measured in cell lysates using ELISA.

R127 = assay: Efficacy in ovarian cancer cells, ADP-GLO; assay type: cell-based
Procedure: as §1, §2

R182 = assay: Efficacy in ovarian cancer cells, ADP-GLO; assay type: cell-based
Procedure: as §1, §2

## COc1c(C)cnc(CN(CCc2ccccc2)c2cc(Cl)nc(N)n2)c1C [SBI-0639353, 6-Chloro-N4-((4-methoxy-3,5-dimethylpyridin-2-yl)methyl)-N4-phenethylpyrimidine-2,4-diamine]
Akt1 in LnCaP cells
  IC50: 5400 nM

## COc1c(C)cnc(CN(CCc2ccc(F)cc2)c2cc(Cl)nc(N)n2)c1C [SBI-0640725]
U251MG; 72 hours, dehydrogenase activity (CCK-8)
  cell viability: reduction in cell viability
U251MG; Homo sapiens, U-251, GBM, ADP-GLO
  EC50: 880 nM
Akt1 in U251MG cells
  levels of the client protein Akt1: progressive decrease in the levels of the client protein Akt1
R127
  EC50: 410 nM
R182
  EC50: 690 nM
